Reference: US20240415819A1, “MACROCYCLIC COMPOUNDS AS PROTEASOME SUBUNIT BETA TYPE-5 INHIBITORS” (Lead Discovery Center GmbH, priority 2021, published 2024)

Key:
[1] = system: Hs 746T (human gastric carcinoma cell line); experiment: 48 hr CTG viability assay, Hs 746T; assay type: cell-based; settings: Hs746T, 48 hr CTG, read-out: Hs 746T IC50
Outline: (§1)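 Growth inhibition by compound over 48 h; IC50 (nM) derived from duplicate CellTiter-Glo luminescence readings across 0.0015–10 uM.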

[2] = system: RPMI 8226 (B lymphocyte cell line, multiple myeloma); experiment: 48 hr CTG viability assay, RPMI 8226; assay type: cell-based; settings: Homo sapiens, RPMI-8226; 48 hr CTG; read-out: RPMI-8226 IC50
Outline: as §1

[3] = system: A549 (human lung carcinoma cell line); experiment: Glo assay of A549 cells (Table 3; ProteasomeGlo plating scheme); assay type: cell-based; settings: Homo sapiens; A549 cells; read-out: PGLo A549
Outline: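 Cells plated in 384 wells; compound, DMSO, staurosporine transferred by ECHO; 105 min, 37° C., 5% CO2; Proteasome-Glo (Suc-LLVY-Glo) reagent added; dark 10-15 min; luminescence; IC50 nM.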

[4] = target: T1, β5 subunit of the human immunoproteasome (IPS) (Homo sapiens, UniProt P28062); experiment: β5 inhibition assay, human immunoproteasome (Suc-LLVY-AMC); assay type: biochemical; settings: IC50 class, Suc-LLVY-AMC substrate
T1 construct: purchased Boston Biochem E-370
Outline: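 Human immunoproteasome (1 nM final) was preincubated 10 min at RT with compound in 100 mM HEPES pH 7.5, 50 mM NaCl, 0.02% SDS, 1 mM DTT. Suc-LLVY-AMC (22.6 μM final) was then added for 4 h at RT in the dark. After stopping with 1 μM bortezomib, AMC fluorescence was read (ex 355/em 460 nm).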

[5] = system: MM1 S (B lymphoblast cell line); experiment: 48 hr CTG viability assay, MM1S; assay type: cell-based; settings: Homo sapiens, 48 hr CTG, read-out: MM1S IC50
Outline: as §1

[6] = system: MDA-MB-468 (breast carcinoma); experiment: 48 hr CTG viability assay, MDA-MB-468; assay type: cell-based; settings: Homo sapiens
Experimental: (§2) A viability assay was conducted for 48 hours to evaluate the inhibition of cancer cell growth by proteasome inhibitors. Briefly, the candidate cell line was plated with a 96-well plate following density of cells, respectively. 6×10^3 Cells/well for A2780 (human ovarian cancer cell line) and MDA-MB-468 (breast carcinoma), 8×10^3 Cells/well for Hs746T (human gastric carcinoma cell line), 1.1×10^4 Cells/well for MM1 S and RPMI 8226 (multiple myeloma). After 24 hours, the cells were treated with various concentrations of the compound (ranging from 0.0015 uM to 10 uM). […] After 48 hours of incubation at 37° C., 5% CO2 incubator, cells were analyzed for viability using the CellTiter-Glo Luminescent Cell Viability assay (Promega, Cat #G7570). All viability assays were performed in duplicate and Luminescence was read using an Envision (Perkin Elmer, USA). Data were analyzed using XLfit software. […] (human gastric carcinoma cell line), MM1 S (B lymphoblast cell line), and RPMI 8226 (B lymphocyte cell line, multiple myeloma). Inhibition is indicated as IC50 [nM] (“-”=not measured).

[7] = system: A2780 (human ovarian cancer cell line); experiment: 48 hr CTG viability assay, A2780; assay type: cell-based
Experimental: as §2

[8] = target: T2, β5 subunit of the human constitutive proteasome (CPS) (Homo sapiens, UniProt P28074); experiment: β5 inhibition assay, human constitutive proteasome (Suc-LLVY-AMC); assay type: biochemical; settings: IC50 class, Suc-LLVY-AMC substrate
T2 construct: purchased Boston Biochem E-360
Experimental: The enzymatic activity of the β5 subunit of the human constitutive proteasome (CPS) is analyzed. In another assay, which differs from the assay of the human constitutive proteasome only in using the human immunoproteasome (IPS) the enzymatic activity of the β5 subunit of the human immunoproteasome (IPS) is analyzed. […] Inhibition is indicated as IC50 [nM] (“-”=not measured).

| Structure (SMILES) | IC50 [1] [nM] | IC50 [2] [nM] | IC50 [3] [nM] | IC50 [4] [nM] | IC50 [5] [nM] | IC50 [6] [nM] | IC50 [7] [nM] | IC50 [8] [nM] |
| --- | --- | --- | --- | --- | --- | --- | --- | --- |
| Cc1ccc2cc1CNC(=O)[C@H](CCc1ccccc1)NC(=O)[C@@H](NC(=O)[C@H](C)c1ccc(N)cc1)CC(=O)N1CCCC(CCO2)C1 (stereo partly drawn) [Compound 738, (2R)-2-(4-aminophenyl)-N-((9S,12S)-5^4-methyl-8,11,14-trioxo-9-phenethyl-4-oxa-7,10-diaza-1(3,1)-piperidina-5(1,3)-benzenacyclotetradecaphane-12-yl)propanamide] | < 100 | < 100 | < 100 | < 100 | < 100 | < 100 | < 100 | < 100 |
| Cc1ccc2cc1CNC(=O)[C@H](CCc1cccnc1)NC(=O)[C@@H](NC(=O)C(C)(C)CO)CC(=O)N1CCCC(CCO2)C1 (stereo partly drawn) [Compound 683, 3-hydroxy-2,2-dimethyl-N-((9S,12S)-5^4-methyl-8,11,14-trioxo-9-(2-(pyridin-3-yl)ethyl)-4-oxa-7,10-diaza-1(3,1)-piperidina-5(1,3)-benzenacyclotetradecaphane-12-yl)propanamide] | < 100 | < 100 | < 100 | < 100 | < 100 | < 100 | – | < 100 |
| Cc1ccc2cc1CNC(=O)[C@H](CCc1ccccc1)NC(=O)[C@@H](NC(=O)C1(CO)CC1)CC(=O)N1CCCC(CCO2)C1 (stereo partly drawn) [Compound 664, 1-(hydroxymethyl)-N-((9S,12S)-5^4-methyl-8,11,14-trioxo-9-phenethyl-4-oxa-7,10-diaza-1(3,1)-piperidina-5(1,3)-benzenacyclotetradecaphane-12-yl)cyclopropane-1-carboxamide] | < 100 | < 100 | < 100 | < 100 | < 100 | < 100 | – | < 100 |
| Cc1ccc2cc1CNC(=O)[C@H](CCc1ccccc1)NC(=O)[C@@H](NC(=O)C(C)(C)CO)CC(=O)NCCCCO2 [Compound 735, 3-hydroxy-2,2-dimethyl-N-((10S,13S)-1^4-methyl-8,11,14-trioxo-13-phenethyl-2-oxa-7,12,15-triaza-1(1,3)-benzenacyclohexadecaphane-10-yl)propanamide] | > 5000 | 1000 to 5000 | > 5000 | < 100 | 1000 to 5000 | > 5000 | – | 100 to 500 |
| Cc1ccc2cc1CNC(=O)[C@H](CCc1ccccc1)NC(=O)[C@@H](NC(=O)Cc1ccc(NC(=O)[C@@H](N)CCC(=O)O)cc1C)CC(=O)N1CCCC(CCO2)C1 (stereo partly shown) [Compound 574] | < 100 | < 100 | – | – | < 100 | < 100 | – | – |
| Cc1ccc2cc1CNC(=O)[C@H](CCc1ccccc1)NC(=O)[C@@H](NC(=O)C1(CO)CCOCC1)CC(=O)N1CCCC(CCO2)C1 (stereo partly drawn) [Compound 671, 4-(hydroxymethyl)-N-((9S,12S)-5^4-methyl-8,11,14-trioxo-9-phenethyl-4-oxa-7,10-diaza-1(3,1)-piperidina-5(1,3)-benzenacyclotetradecaphane-12-yl)tetrahydro-2H-pyran-4-carboxamide] | < 100 | < 100 | < 100 | < 100 | < 100 | < 100 | – | < 100 |
| Cc1ccc2cc1CNC(=O)[C@H](CCc1ccccc1)NC(=O)[C@@H](NC(=O)N1CCc3cc(N)ccc31)CC(=O)N1CCCC(CCO2)C1 (stereo partly drawn) [Compound 704, 5-amino-N-((9S,12S)-5^4-methyl-8,11,14-trioxo-9-phenethyl-4-oxa-7,10-diaza-1(3,1)-piperidina-5(1,3)-benzenacyclotetradecaphane-12-yl)indoline-1-carboxamide] | < 100 | < 100 | < 100 | < 100 | < 100 | < 100 | – | < 100 |
| Cc1ccc2cc1CNC(=O)[C@H](CCc1ccccc1)NC(=O)[C@@H](NC(=O)C(C)(C)CO)CCC(=O)NCCCO2 [Compound 732, 3-hydroxy-2,2-dimethyl-N-((10S,13S)-1^4-methyl-7,11,14-trioxo-13-phenethyl-2-oxa-6,12,15-triaza-1(1,3)-benzenacyclohexadecaphane-10-yl)propanamide] | > 5000 | 500 to 1000 | 1000 to 5000 | < 100 | 1000 to 5000 | 1000 to 5000 | – | < 100 |
| Cc1ccc2cc1CNC(=O)[C@H](CCc1ccccc1)NC(=O)[C@@H](NC(=O)C1(CO)CCNCC1)CC(=O)N1CCCC(CCO2)C1 (stereo partly drawn) [Compound 730, 4-(hydroxymethyl)-N-((9S,12S)-5^4-methyl-8,11,14-trioxo-9-phenethyl-4-oxa-7,10-diaza-1(3,1)-piperidina-5(1,3)-benzenacyclotetradecaphane-12-yl)piperidine-4-carboxamide] | 500 to 1000 | 500 to 1000 | 100 to 500 | < 100 | 100 to 500 | 1000 to 5000 | – | < 100 |
| Cc1ccc2cc1CNC(=O)[C@H](CCc1ccccc1)NC(=O)[C@@H](NC(=O)[C@@H](C)c1ccc(N)cc1)CC(=O)N1CCCC(CCO2)C1 (stereo partly drawn) [Compound 634, (2S)-2-(4-aminophenyl)-N-((9S,12S)-5^4-methyl-8,11,14-trioxo-9-phenethyl-4-oxa-7,10-diaza-1(3,1)-piperidina-5(1,3)-benzenacyclotetradecaphane-12-yl)propanamide] | < 100 | < 100 | < 100 | < 100 | < 100 | < 100 | < 100 | < 100 |
| Cc1ccc2cc1CNC(=O)[C@H](CCc1ccccc1)NC(=O)[C@@H](NC(=O)C(F)(F)CO)CC(=O)N1CCCC(CCO2)C1 (stereo partly drawn) [Compound 599, 2,2-difluoro-3-hydroxy-N-((9S,12S)-5^4-methyl-8,11,14-trioxo-9-phenethyl-4-oxa-7,10-diaza-1(3,1)-piperidina-5(1,3)-benzenacyclotetradecaphane-12-yl)propanamide] | < 100 | < 100 | < 100 | < 100 | < 100 | < 100 | – | < 100 |
